Assay results from ChEMBL document CHEMBL1201862, “PubChem BioAssay data set” (2004).
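In this assay, cells in 96-well plates receive the compound at five concentrations for 48 hours. Endpoints are linearly interpolated between the surrounding concentrations. GI50: concentration for 50% inhibition of growth.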 Calls of active or inactive are those of the source. Cut-off read from the data, not from the text of the source: active = GI50 up to about 1.1 µM and inactive = higher.

What was measured:
Experiment in all cases: NCI-60 cell line screen, 48 h
SW-620 = tested on: SW-620
RPMI-8226 = tested on: RPMI-8226
MDA-N = tested on: MDA-N
K562 = tested on: K562
RXF 393 = tested on: RXF 393
CAKI-1 = tested on: CAKI-1
SF-539 = tested on: SF-539
OVCAR-5 = tested on: OVCAR-5
A498 = tested on: A498
BT-549 = tested on: BT-549
SNB-75 = tested on: SNB-75
LOX IMVI = tested on: LOX IMVI
OVCAR-4 = tested on: OVCAR-4
IGROV-1 = tested on: IGROV-1
TK-10 = tested on: TK-10
OVCAR-8 = tested on: OVCAR-8
SK-MEL-2 = tested on: SK-MEL-2
SN12C = tested on: SN12C
HT-29 = tested on: HT-29
HOP-92 = tested on: HOP-92

Row | SMILES | GI50 (SW-620) | GI50 (RPMI-8226) | GI50 (MDA-N) | GI50 (K562) | GI50 (RXF 393) | GI50 (CAKI-1) | GI50 (SF-539) | GI50 (OVCAR-5) | GI50 (A498) | GI50 (BT-549) | GI50 (SNB-75) | GI50 (LOX IMVI) | GI50 (OVCAR-4) | GI50 (IGROV-1) | GI50 (TK-10) | GI50 (OVCAR-8) | GI50 (SK-MEL-2) | GI50 (SN12C) | GI50 (HT-29) | GI50 (HOP-92)
1 | CC(=O)NC1C(OC(C)C(=O)NC(C)C(=O)NC(CCC(=O)NCCCCCNc2ccc([N+](=O)[O-])c3[nH]c4ccccc4c(=O)c23)C(N)=O)C(O)C(CO)OC1(C)OCc1ccccc1 (stereo not given) | 67.9 µM (inactive) | 28.1 µM (inactive) | > 100 µM (inactive) | 45.3 µM (inactive) | 87.1 µM (inactive) | > 100 µM (inactive) | 64.1 µM (inactive) | > 100 µM (inactive) | > 100 µM (inactive) | > 100 µM (inactive) | > 100 µM (inactive) | > 100 µM (inactive) | > 100 µM (inactive) | 64.1 µM (inactive) | 11.9 µM (inactive) | 71.6 µM (inactive) | > 100 µM (inactive) | > 100 µM (inactive) | 30.9 µM (inactive) | 
2 | COc1cc(/C=C2\CCC/C(=C\c3cc(OC)c(O)c(OC)c3)C2=O)cc(OC)c1O | 3.37 µM (inactive) | 1.55 µM (inactive) | 1.79 µM (inactive) | 4.81 µM (inactive) | 1.43 µM (inactive) | 1.84 µM (inactive) | 2.16 µM (inactive) | 2.05 µM (inactive) | 1.41 µM (inactive) | 1.53 µM (inactive) | 9.86 µM (inactive) | 1.91 µM (inactive) | 3.16 µM (inactive) | 1.22 µM (inactive) | 5.33 µM (inactive) | 1.98 µM (inactive) | 2.4 µM (inactive) | 2.32 µM (inactive) | 12.9 µM (inactive) | 
3 | CCn1ncc2c(=O)n3ncn(-c4ccc(Br)cc4)c3nc21 | > 100 µM (inactive) | > 100 µM (inactive) | > 100 µM (inactive) | > 100 µM (inactive) | > 100 µM (inactive) |  |  | > 100 µM (inactive) | > 100 µM (inactive) | > 100 µM (inactive) | > 100 µM (inactive) |  | > 100 µM (inactive) | > 100 µM (inactive) | > 100 µM (inactive) | > 100 µM (inactive) | > 100 µM (inactive) | > 100 µM (inactive) | > 100 µM (inactive) | 
4 | COc1ccc(C2SC(=N)Nc3c2c(C)nn3C(=O)Cc2ccccc2)cc1 (stereo not given) | > 100 µM (inactive) | > 100 µM (inactive) | > 100 µM (inactive) | > 100 µM (inactive) |  | > 100 µM (inactive) | > 100 µM (inactive) |  | > 100 µM (inactive) | > 100 µM (inactive) | 10.9 µM (inactive) | > 100 µM (inactive) |  | > 100 µM (inactive) | > 100 µM (inactive) | > 100 µM (inactive) |  | > 100 µM (inactive) | > 100 µM (inactive) | 
5 | C=CCN(c1cc(OCc2ccccc2)c2c(c1)c(C)cn2S(=O)(=O)c1ccccc1)S(C)(=O)=O | > 100 µM (inactive) | > 100 µM (inactive) | > 100 µM (inactive) | > 100 µM (inactive) | > 100 µM (inactive) | > 100 µM (inactive) | > 100 µM (inactive) | > 100 µM (inactive) |  | > 100 µM (inactive) | > 100 µM (inactive) | > 100 µM (inactive) | > 100 µM (inactive) | > 100 µM (inactive) | > 100 µM (inactive) | > 100 µM (inactive) | > 100 µM (inactive) | > 100 µM (inactive) | > 100 µM (inactive) | > 100 µM (inactive)
6 | CC1=N[C@](C)(C2CC3C=CC2C3=O)COC1=O (stereo not given in full) | > 100 µM (inactive) |  | > 100 µM (inactive) | > 100 µM (inactive) | > 100 µM (inactive) | > 100 µM (inactive) | > 100 µM (inactive) | > 100 µM (inactive) | > 100 µM (inactive) | > 100 µM (inactive) | > 100 µM (inactive) |  | > 100 µM (inactive) | > 100 µM (inactive) | > 100 µM (inactive) | > 100 µM (inactive) |  | > 100 µM (inactive) | > 100 µM (inactive) | > 100 µM (inactive)
7 | N#CC1(C#N)C(C#N)(C#N)C1(C#N)C(N)=O | > 100 µM (inactive) | > 100 µM (inactive) | > 100 µM (inactive) | > 100 µM (inactive) | > 100 µM (inactive) | > 100 µM (inactive) |  | > 100 µM (inactive) | > 100 µM (inactive) | > 100 µM (inactive) |  | > 100 µM (inactive) | > 100 µM (inactive) | > 100 µM (inactive) | > 100 µM (inactive) | > 100 µM (inactive) | > 100 µM (inactive) | > 100 µM (inactive) | > 100 µM (inactive) | > 100 µM (inactive)
8 | O=C(NC(CCCCN1C(=O)c2ccccc2C1=O)P(=O)(Oc1ccccc1)Oc1ccccc1)OCc1ccccc1 (stereo not given) | > 100 µM (inactive) | > 100 µM (inactive) | > 100 µM (inactive) |  | > 100 µM (inactive) | > 100 µM (inactive) | > 100 µM (inactive) | > 100 µM (inactive) |  | > 100 µM (inactive) | 0.01 µM (active) |  |  | > 100 µM (inactive) | > 100 µM (inactive) | > 100 µM (inactive) | > 100 µM (inactive) | > 100 µM (inactive) | > 100 µM (inactive) | > 100 µM (inactive)
9 | N#CCCN(CCC#N)c1ccc(/C=C2\N=C(c3ccccc3)N(NC(=O)c3ccncc3)C2=O)cc1 | > 100 µM (inactive) | > 100 µM (inactive) | > 100 µM (inactive) | 49.2 µM (inactive) | > 100 µM (inactive) |  | > 100 µM (inactive) | > 100 µM (inactive) | > 100 µM (inactive) | > 100 µM (inactive) |  | > 100 µM (inactive) | > 100 µM (inactive) | > 100 µM (inactive) | > 100 µM (inactive) | > 100 µM (inactive) | > 100 µM (inactive) | > 100 µM (inactive) | > 100 µM (inactive) | > 100 µM (inactive)
10 | Nc1ncc(Sc2ccccc2C(=O)O)s1 | > 100 µM (inactive) | > 100 µM (inactive) | > 100 µM (inactive) | > 100 µM (inactive) | > 100 µM (inactive) | > 100 µM (inactive) | > 100 µM (inactive) | > 100 µM (inactive) | > 100 µM (inactive) | > 100 µM (inactive) | > 100 µM (inactive) | > 100 µM (inactive) |  | > 100 µM (inactive) | > 100 µM (inactive) | > 100 µM (inactive) | > 100 µM (inactive) | > 100 µM (inactive) | > 100 µM (inactive) | > 100 µM (inactive)
11 | O=c1[nH]nc(Cc2ccc([N+](=O)[O-])cc2)[nH]1 | > 100 µM (inactive) | > 100 µM (inactive) | > 100 µM (inactive) | > 100 µM (inactive) | > 100 µM (inactive) | > 100 µM (inactive) | > 100 µM (inactive) | > 100 µM (inactive) | > 100 µM (inactive) | > 100 µM (inactive) | > 100 µM (inactive) | > 100 µM (inactive) | > 100 µM (inactive) | > 100 µM (inactive) | > 100 µM (inactive) | > 100 µM (inactive) | > 100 µM (inactive) | > 100 µM (inactive) | > 100 µM (inactive) | 
12 | Cc1nc2[nH]ccn2c(=O)c1CCCl | 17.3 µM (inactive) | 28 µM (inactive) | 21.9 µM (inactive) | 22.9 µM (inactive) | 19.4 µM (inactive) | > 10 µM (inactive) | 17.1 µM (inactive) | > 100 µM (inactive) | 19 µM (inactive) | 25.2 µM (inactive) | 39.3 µM (inactive) | 16.6 µM (inactive) | 20.1 µM (inactive) | 26.2 µM (inactive) | 31 µM (inactive) | 26.7 µM (inactive) |  | 19.6 µM (inactive) | 33.7 µM (inactive) | 21.4 µM (inactive)
13 | CCOC(=O)CCC(NC(=O)OCc1ccccc1)C(=O)NC(CCC(=O)OCC)C(=O)NC(CCC(=O)OCC)C(=O)NC(CCC(=O)OCC)C(=O)NC(CCC(=O)OCC)C(=O)OCC (stereo not given) | > 100 µM (inactive) | > 100 µM (inactive) | > 100 µM (inactive) |  | > 100 µM (inactive) | > 100 µM (inactive) |  | > 100 µM (inactive) |  | > 100 µM (inactive) | > 100 µM (inactive) | > 100 µM (inactive) | > 100 µM (inactive) | > 100 µM (inactive) | > 100 µM (inactive) | > 100 µM (inactive) | > 100 µM (inactive) | > 100 µM (inactive) | > 100 µM (inactive) | 
14 | O=C1CC=C2C3CC4N(CCC45c4ccccc4N1C25)C/C3=C\CO (stereo not given) | > 100 µM (inactive) | > 100 µM (inactive) | > 100 µM (inactive) | > 100 µM (inactive) |  | > 100 µM (inactive) | > 100 µM (inactive) | > 100 µM (inactive) | > 100 µM (inactive) | > 100 µM (inactive) | > 100 µM (inactive) | > 100 µM (inactive) | > 100 µM (inactive) | > 100 µM (inactive) | > 100 µM (inactive) | > 100 µM (inactive) | > 100 µM (inactive) | > 100 µM (inactive) | > 100 µM (inactive) | > 100 µM (inactive)
15 | CC1=C2C(=O)O[C@@H](c3ccoc3)[C@]2(C)CCC1=O [FRAXINELLONONE] | > 100 µM (inactive) | > 100 µM (inactive) | > 100 µM (inactive) | > 100 µM (inactive) |  | > 100 µM (inactive) | > 100 µM (inactive) | > 100 µM (inactive) | > 100 µM (inactive) | > 100 µM (inactive) | > 100 µM (inactive) | > 100 µM (inactive) |  | > 100 µM (inactive) |  | > 100 µM (inactive) | > 100 µM (inactive) | > 100 µM (inactive) |  | > 100 µM (inactive)
